Target: T1, BAK (Homo sapiens, UniProt Q16611)
T1 construct: gene BAK1; BAKΔTM (lacking its transmembrane domain) for MST; BAK 15–186 for NMR
T1 sequence (Q16611 15-186): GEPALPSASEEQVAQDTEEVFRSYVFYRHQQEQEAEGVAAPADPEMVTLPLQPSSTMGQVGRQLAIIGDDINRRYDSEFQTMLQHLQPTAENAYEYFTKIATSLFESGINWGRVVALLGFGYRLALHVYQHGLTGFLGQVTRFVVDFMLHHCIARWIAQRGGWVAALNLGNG
Experiment: microscale thermophoresis; 1H, […]-HSQC NMR titration; BAK oligomerization and liposome release as support
Type: binding

Kd: 1200 ± 700 nM
SMILES: CC1=NN(c2ccc(C)c(C)c2)C(=O)/C1=N\Nc1cccc(-c2cccc(C(=O)O)c2)c1O [Eltrombopag]

Reference: article PMC10314921, “Eltrombopag directly activates BAK and induces apoptosis” (Cell Death & Disease, 2023)
